We go through seven molecules from article PMC12183826, “Structure-based design and evaluation of tyrosinase inhibitors targeting both human and mushroom isozymes” (RSC Medicinal Chemistry, 2025).

A short description of series [1]: Relative lipophilicity by RP-TLC. The class given is physicochemical. The note with it: RP-TLC C18, acetone:water 2:1. The protocol:
Based on the consideration that the lipophilicity of an active molecule exerts a relevant role in skin penetration as well as in the process of crossing the cell membrane, we chose to experimentally estimate the relative lipophilicity of the synthesized compounds 1–5. We employed reverse-phase thin layer chromatography (RP-TLC); the retardation coefficients (RFs) were measured from the chromatograms, thus generating the RM values as an estimation of the relative lipophilicity among the homogenous series of the studied compounds 1–5 in comparison with MehT-3. The Experimental procedure (4.3 Lipophilicity) contains a detailed description of the applied methods.
Experimental relative lipophilicity was determined by employing reversed phase TLC on 20 cm × 20 cm plates coated with C18 silica. The eluant was prepared by mixing acetone and water (2 : 1 (v/v)). The studied compounds and reference substances were dissolved in MeOH to obtain the working solution with a concentration of 2.0 mg mL^−1. Then, we activated the plates by heating at 105 °C for 1 h. From each working solution, a volume of 0.2 μL was spotted to the plates. The measurements were repeated three times with distinct disposition of the compounds on the plate, so that RF values represented the mean values obtained in triplicate. The chromatograms were developed at a distance of 10 cm from the origin in ascending TLC chambers at room temperature. Then, the spots of the substances were visualized by means of a UV lamp at 254 nm. Based on the retardation coefficients (RF) we calculated the relative lipophilicity RM values according to the formula RM = log[(1/RF) − 1];[44] higher RM values predict a higher lipophilicity.

Series [2] addresses T1, human tyrosinase (hTYR) (Homo sapiens, UniProt P14679).
T1 construct: The intramelanosomal domain of hTYR was expressed and purified; made in house
T1 sequence (P14679 19-476 limits assumed): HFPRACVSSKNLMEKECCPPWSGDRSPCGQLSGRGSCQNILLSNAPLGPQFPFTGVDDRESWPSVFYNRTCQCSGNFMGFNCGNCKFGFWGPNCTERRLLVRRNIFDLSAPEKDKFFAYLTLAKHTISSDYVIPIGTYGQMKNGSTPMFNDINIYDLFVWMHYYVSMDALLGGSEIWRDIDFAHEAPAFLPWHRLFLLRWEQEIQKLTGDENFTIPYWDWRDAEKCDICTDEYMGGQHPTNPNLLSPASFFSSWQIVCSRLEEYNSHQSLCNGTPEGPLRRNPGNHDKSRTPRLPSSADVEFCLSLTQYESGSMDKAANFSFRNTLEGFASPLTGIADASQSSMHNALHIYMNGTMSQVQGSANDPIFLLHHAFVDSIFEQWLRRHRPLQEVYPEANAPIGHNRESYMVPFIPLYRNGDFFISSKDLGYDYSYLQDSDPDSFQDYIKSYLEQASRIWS
Description: hTYR inhibition assay. In kind it is biochemical. The text has this: (§1) No. T3824). Kojic acid was employed as a positive standard. The intramelanosomal domain of hTYR was expressed and purified as previously reported in the literature.[46] The reference compound Thiamidol was purchased from BLDpharm (Shanghai, China).

A short description of series [3]: ABTS radical scavenging assay. The note with it: read-out: Antioxidant activity EC50 (ABTS). How it is done: Therefore, we conducted a preliminary assessment of the antioxidant activity of all synthesized target compounds by evaluating their ABTS radical scavenging capacity. The ABTS assay is widely recognized as one of the most reliable methods for measuring antioxidants' ability to neutralize the stable ABTS˙^+ radical cation.
The overall free radical-scavenging capacity of the compounds was evaluated using the ABTS [2,20-azinobis-(3-ethylbenzothiazoline-6-sulfonic acid)] assay according to previously described methods.[45] The method relies on the capacity of antioxidants to scavenge the ABTS˙^+ radical. To generate ABTS˙^+, a 7 mM ABTS solution was mixed with 2.45 mM potassium persulfate in water, and the mixture was incubated in the dark at room temperature for 24 h. Subsequently, 10 μL of sample at varying concentrations was added to 990 μL of the diluted ABTS˙^+ solution. After 1 min of reaction at room temperature, the absorbance was recorded at 734 nm. The reference antioxidant used was 6-hydroxy-2,5,7,8-tetramethylchromane-2-carboxylic acid (Trolox). Antioxidant activity was quantified as EC50, which represents the concentration of compound needed to reduce the initial absorbance by 50%.

The target of series [4] is Agaricus bisporus tyrosinase (AbTYR). Description: AbTYR inhibition assay. The class given is biochemical.
Excerpt: as §1

Series [5] relates to HaCaT cells. Description: Intracellular ROS levels (DCFH-DA), H2O2-induced. The note with it: 5–50 μM, 2 mM H2O2. The class given is cell-based, human. How it is done: To further confirm their antioxidant capacity, we carried out an antioxidant assay in the skin keratinocyte cell line HaCaT. The levels of ROS were measured before and after exposure to H2O2-induced oxidative stress and after treatment with compounds 2 and 3 at various concentrations (5–50 μM).
Cellular ROS levels were measured using the 2′,7′-dichlorofluorescein diacetate (DCFH-DA) method.[48] HaCat cells were exposed to different concentrations of the test compounds, and after 24 h, cells were incubated with DCFH-DA (10 μM) at 37 °C for 30 min and then treated with 2 mM H2O2. The fluorescence intensity of DCF was immediately measured with a fluorescence plate reader (VANTAstar_BMGLABTECH GmbH, Offenburg, Germany).

Series [6] can be described thus: MTT cell viability. The class given is cell-based. Conditions: human, HaCaT keratinocyte cells. The protocol: Based on the inhibitory effects on hTYR and antioxidant properties on the ABTS assay, we focused our attention on compounds 2 and 3, which were further characterized as skin protective agents. In more detail, we evaluated their ability to influence the viability of human skin keratinocyte cell line HaCaT at distinct concentrations ranging from 5 to 50 μM (Fig. 6). […] Cell viability remained above 87% in compound 2 for all concentrations tested.
The 3-(4,5-dimethylthiazol-2-yl)-2,5-diphenyltetrazolium bromide (MTT) technique on human skin keratinocyte cell line (HaCaT; CLS-Cell Lines Service, Eppelheim, Germany) was employed to assess cell viability as reported by Pintus et al.[47] The cells were exposed to the compounds at concentrations ranging from […] for a duration of 24 h. Afterward, MTT reagent was added to each well, followed by incubation at 37 °C for 3 h. Following incubation, the MTT solution was removed from the culture plate, and 100 μL of DMSO solvent was added to dissolve the water-insoluble formazan crystals formed in the cells. The absorbance was then measured at 570 nm using a microplate reader (VANTAstar_BMG LABTECH GmbH, Offenburg, Germany).

In series [7] the test system is Agaricus bisporus tyrosinase (AbTYR). Further details: method as in PMID 37657271, PMID 36093940. The note with it: cited from earlier work.
The target in series [8] is T1, human tyrosinase (hTYR). The note with it: cited from earlier work.
Details of series [9]: method as in PMID 36675192. The note with it: positive control; read-out: Antioxidant activity EC50 (ABTS); cited from earlier work.

Like-named read-outs stand apart in the source and are kept apart here.

As a reminder, the IC50 is the midpoint of a concentration-inhibition curve. The term EC50 denotes the concentration giving half of the maximal effect. As to `CC(=O)NCC(=O)N1CCN(c2ccc(O)cc2)CC1` [Compound 5, N-[2-[4-(4-hydroxyphenyl)piperazin-1-yl]-2-oxoethyl]acetamide], in [1], the “RM (relative lipophilicity)” value is reported as −0.65. Besides, the values for the IC50 in [2] and in series [4] were 27.2 ± 6.2 µM and 4 ± 0.25 µM, respectively. Besides, in series [3], the EC50 is 10.4 ± 0.1 µM.

A word on the viability: it is a read-out of living cells in per cent, often relative to untreated cells. A lower viability goes with more harm to the cells. Turning to `CC(=O)N1CCN(c2ccc(O)cc2)CC1` [Compound 3, 1-[4-(4-hydroxyphenyl)piperazin-1-yl]ethan-1-one], the results for the IC50 in [2] and in series [4] were 5.3 ± 0.9 µM and 31.8 ± 3.37 µM, respectively. In addition, the “H2O2-induced ROS production” value in [5] was “decreased the production of ROS induced by hydrogen peroxide in a dose-dependent manner”. Moreover, in [3], the EC50 came to 14 ± 0.9 µM. Besides, the viability at 24 h, 50 µM in series [6] (50 μM) turned out to be 75%.

As to `O=C(c1ccc(=O)[nH]c1)N1CCN(c2ccc(O)cc2)CC1` [Compound 2, 5-[4-(4-hydroxyphenyl)piperazine-1-carbonyl]pyridin-2(1H)-one], the “RM (relative lipophilicity)” value in series [1] is on record as −0.60. Also, the values for the concentration for half-maximal inhibition (IC50) in [2] and in series [4] were 7.8 ± 0.8 µM and 13.2 ± 2.24 µM, respectively. Moreover, the “H2O2-induced ROS production” value in series [5] is “decreased the production of ROS induced by hydrogen peroxide in a dose-dependent manner”. Moreover, the EC50 in series [3] stood at 9.5 ± 0.2 µM. In series [6] (all concentrations tested (5 to 50 μM)), this molecule gave a viability at 24 h greater than 87%.

In the case of `COc1ccccc1C(=O)N1CCN(c2ccc(O)cc2)CC1` [MehT-3, [4-(4-hydroxyphenyl)piperazin-1-yl](2-methoxyphenyl)methanone], in [1], the “RM (relative lipophilicity)” value was −0.17. In addition, the “Mode of inhibition of AbTYR (kinetic analyses)” value in [7] is listed as “competitive inhibitor”. In addition, the IC50 in [7] (reference compound) was 3.52 ± 0.25 µM. Further, in series [8], the “Mode of inhibition of hTYR (kinetic analyses)” value is recorded as “competitive inhibitor”.

With `O=C(O)c1ccccc1C(=O)N1CCN(c2ccc(O)cc2)CC1` [Compound 1, 2-[4-(4-hydroxyphenyl)piperazine-1-carbonyl]benzoic acid], the half-maximal inhibitory concentration (IC50) in series [2] is 15.4 ± 1.2 µM; in series [4], 40.7 ± 3.19 µM. Moreover, the EC50 in [3] amounted to 17.1 ± 0.7 µM.

For the molecule `Cc1c(C)c2c(c(C)c1O)CCC(C)(C(=O)O)O2` (centres unmarked) [Trolox, 6-hydroxy-2,5,7,8-tetramethylchromane-2-carboxylic acid], in [9], the EC50 was 13 ± 1.1 µM.

Consider `CCC(=O)N1CCN(c2ccc(O)cc2)CC1` [Compound 4, 1-[4-(4-hydroxyphenyl)piperazin-1-yl]propan-1-one], for which the values for the half-maximal inhibitory concentration (IC50) in series [2] and in series [4] were 24.1 ± 3.3 µM and 8.74 ± 0.36 µM, respectively. For the same molecule, the EC50 in [3] is 10.8 ± 0.3 µM.
